Where no end group is shown, it is not given here. The star is where a group is joined. Palmitoyl = CCCCCCCCCCCCCCCC(=O)*
Experiments:
RNVCMs = assay: Live/Dead assay after H2O2 treatment (simulated ischemic injury in vitro); type: cell-based; details: H2O2 (200 μM) treatment
From the text: Since oxidative stress in the ischemic heart is increasingly recognized as a possible cause for poor survival of transplanted cells, whether encapsulation of the CMs with PA-RGDS increases their survival when exposed to the H2O2 simulating ischemic condition in vitro was investigated.

mouse experimental MI [1] = assay: Echocardiography (EF, FS) in mouse myocardial infarction model; type: in vivo; details: up to 4 weeks after MI induction
From the text: (§1) Myocardial infarction (MI) was induced in mice by ligation of the left anterior descending coronary artery, and cells or other reagents were intramyocardially injected through 30 G needles at two different sites in the border zone of the myocardium immediately after surgery. Mice were randomly assigned into four treatment groups: (i) PBS as a control group, (ii) 2×10^5 mESCs-derived CMs only, (iii) PA-RGDS only, or (iv) 2×10^5 mESCs-derived CMs encapsulated with PA-RGDS. Due to the limiting factor of murine heart size and the requirement to deliver a large quantity of cells, only one concentration ratio of PA […] to cells was used for the studies. All CMs were obtained from the same differentiation batch and prelabeled with CM-DiI (red fluorescence) before cell injection for cell tracking in histology.
Next, the therapeutic effects of treatments with CM only, PA-RGDS only and mESC-CMs with PA-RGDS, comparing with PBS control in ischemic myocardium in mice was investigated. Echocardiography was performed regularly to measure cardiac remodeling and function (FIG. 6A).
Prior studies reported that the beneficial effects from treatment with various types of stem cells or stem cell derived cells were substantially diminished by 3-4 weeks, mostly due to massive cell death or ejection from the myocardium. […] (FIG. 7A)

mouse experimental MI [2] = assay: Scar area by Masson's trichrome staining of infarcted hearts; type: in vivo; details: 4 weeks after MI induction, N=6
From the text: as §1
Masson's Trichrome staining was performed with fixed sections of infarcted hearts to evaluate the extent of scar formation 4 weeks after MI induction.

[3] = Mechanical properties of self-assembled PA-RGDS gel (storage modulus); type: physicochemical
From the text: Cardiomyocytes (CMs) derived from pluripotent stem cells (PSCs) including both embryonic stem cells (ESCs) and the induced pluripotent stem cells (iPSCs) are useful for generating new CMs in injured hearts, with PA-RGDS, which addresses low cell survival. The PA-RGDS provides a protective microenvironment for CMs in vivo. An important aspect of the PA-RGDS is the physical properties of the gels, which can be tuned to provide mechanical strength. […] PA-RGDS nanomatrix gels were also observed to be structurally stable with well-defined cylindrical shape and increased durability for handling and transport. This is particularly important for early cell survival, as cardiac tissue scaffolds require enough mechanical strength to resist the cardiac cycle, but enough flexibility to allow the contractile function of implanted CMs. The mechanical strength of PA-RGDS can be tuned for the application.

In the case of “CH3(CH2)14CONH-GTAGLIGQ-RGDS (Palmitoyl-GTAGLIGQRGDS) [PA-RGDS, gels made 1:1 with PA-S]”, the “Live cells (Live/Dead assay) after H2O2” value (RNVCMs) is reported as “increased cell survival”, the “Cardiac function (EF and FS) by echocardiography” value (mouse experimental MI [1]) is reported as “dramatically reduced” and the Scar area (mouse experimental MI [2]) is reported as 41.7±4.7%. For the same substance, the “Storage modulus (G′)” value [3] was “around 100 Pa”.

From patent publication US20190151369A1, “Engineered Stem Cell Therapy for Cardiac Repair” (Emory University, priority 2014, published 2019)
